Laboratory results reported in patent US10457663B2, “Pyrazol-pyridine derivatives” (Hoffmann-La Roche Inc., priority 2016, dated 2019).

Columns and labels:
[1] = biological target: T1, human EAAT3 (Homo sapiens, UniProt P43005); assay: FLIPR Membrane Potential (FMP) assay; assay type: cell-based; conditions: HEK-293 cells stably expressing human EAAT3; L-glutamate as agonist at EC80; antagonist applied 15 min before; Kb by Cheng-Prusoff from IC50
T1 construct: expressed in transfected cells; host or cells: HEK-293
T1 sequence (P43005 1-524): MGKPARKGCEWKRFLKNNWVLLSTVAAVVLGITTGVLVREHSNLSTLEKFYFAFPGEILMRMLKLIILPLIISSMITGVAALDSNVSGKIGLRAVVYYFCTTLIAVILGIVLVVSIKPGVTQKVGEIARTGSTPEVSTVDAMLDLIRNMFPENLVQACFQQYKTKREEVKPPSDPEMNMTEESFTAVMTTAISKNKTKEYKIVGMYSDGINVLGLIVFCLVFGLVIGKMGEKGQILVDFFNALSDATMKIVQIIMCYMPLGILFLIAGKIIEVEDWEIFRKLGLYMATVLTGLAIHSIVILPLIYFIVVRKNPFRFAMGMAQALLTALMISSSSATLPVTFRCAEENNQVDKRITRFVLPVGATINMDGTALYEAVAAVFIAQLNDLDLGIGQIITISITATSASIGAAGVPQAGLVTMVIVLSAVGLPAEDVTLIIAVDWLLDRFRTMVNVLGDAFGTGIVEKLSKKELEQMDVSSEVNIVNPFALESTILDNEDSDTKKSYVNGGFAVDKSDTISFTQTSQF
Experimental: The FLIPR Membrane Potential (FMP) assay
HEK-293 cells stably expressing human EAAT3 were seeded at 55 000 cells/well in growth medium (DMEM glutamate free (Invitrogen 11960-044), 1% Pen Strep (10 ml/l GIBCO BRL N^o 15140-023), 10% FCS non dialysed heat inactivated, 5 mg/l puromycin) in poly-D-lysine treated 96-well black microtiter plates with clear-bottom. After 24 h, the growth medium was removed and 100 μl/well of Krebs buffer (140 mM NaCl, 4.7 mM KCl, 2.5 mM CaCl2), 1.2 mM MgCl2, 11 mM HEPES, 10 mM D-glucose, pH=7.4) added. The cells were then loaded by adding 100 μl/well FMP assay dye (FLIPR Membrane Potential assay reagent, Molecular Devices). The 96-well plates were then incubated at 37° C. for 1 h. The depolarization of the cells will cause more dye to enter in the cells, where it will bind to intracellular proteins and lipids and cause an increase in the fluorescence signal. Antagonist potency at human EAAT3 was determined by using L-glutamate as agonist at a concentration which gives 80% of the maximum response. The antagonists were applied 15 min before the application of the agonist L-glutamate. The assays were performed at room temperature and measurements done by using a Fluorometric Imaging Plate Reader (FLIPR, Molecular Devices) and filter #2. Responses were measured as peak increase in fluorescence minus basal (i.e. fluorescence without addition of L-glutamate). Kb was determined using the Cheng-Prusoff equation Kb=IC50/[1+(A/EC50)], where IC50 is the concentration of the antagonist producing 50% inhibition, A is the concentration of the agonist against which the IC50 is being determined (at EC80) and EC50 is the concentration of the agonist producing 50% […].

Row | Compound | melting point | Kb [1]
1 | CC(C)(CO)NC(=O)c1cc(-c2ccc(Cl)cc2)nc(-c2ccnn2C(C)(C)C)c1 [Example 55, 2-(2-tert-Butyl-pyrazol-3-yl)-6-(4-chlorophenyl)-N-(1-hydroxy-2-methyl-propan-2-yl)-pyridine-4-carboxamide] | 177 °C | 73 nM
2 | CC(C)(C#N)NC(=O)c1cc(-c2ccc(Cl)cc2)nc(-c2ccnn2C(C)(C)C)c1 [Example 56, 2-(2-tert-Butyl-pyrazol-3-yl)-6-(4-chlorophenyl)-N-(2-cyano-propan-2-yl)-pyridine-4-carboxamide] | 230 °C | 210 nM
